Entries after “also recorded” stand apart in the source; their conditions may differ. Like-named read-outs stand apart in the source and are kept apart here.
What was measured:
HIV-Nef = target: T1, HIV-Nef (Human immunodeficiency virus type 1, UniProt P03406); assay: Inhibition of HIV-Nef downmodulation of MHC-I HLA-A2 on the surface of HIV ΔGPE infected primary CD4+ T cells (flow cytometry); assay type: cell-based; conditions: HLA-A2 surface expression, ΔGPE infected primary CD4+ T cells, 24 hours after treatment
T1 sequence (P03406 2-206): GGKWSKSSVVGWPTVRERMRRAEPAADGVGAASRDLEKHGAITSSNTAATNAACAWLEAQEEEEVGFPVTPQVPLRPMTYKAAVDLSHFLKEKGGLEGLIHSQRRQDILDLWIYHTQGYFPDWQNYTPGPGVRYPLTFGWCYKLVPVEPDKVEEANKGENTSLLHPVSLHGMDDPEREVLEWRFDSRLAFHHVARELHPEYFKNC

V-ATPase = target: T2, V-ATPase (Homo sapiens, UniProt P27449); assay: Lysosomal acidification (Lysotracker mean fluorescence intensity) as indicator of V-ATPase activity in primary CD4+ T cells; assay type: cell-based
T2 construct: endogenous in cells; host or cells: primary CD4+ T cells (HIV ΔGPE infected) from donor PBMCs
Experimental: (§1) Inhibition of HIV-Nef was measured by assessing its capacity to downmodulate MHC-I HLA-A2 on the surface of primary CD4+ T cells 24-hours after treatment with each compound. V-ATPase inhibition was assessed at the same time point using lysosomal acidification as an indicator of V-ATPase activity. This was measured using a flow cytometric assay that quantified Lysotracker mean fluorescence intensity as previously described (Painter et al., 2020). Cell viability was measured at 24-hour and 72-hour time points using a previously described flow cytometric assay (Painter et al., 2020).
(§2) Anonymized leukocytes isolated by apheresis were obtained from New York Blood Center and peripheral blood mononuclear cells (PBMCs) were isolated by Ficoll-Paque Plus (17144002; GE Healthcare) centrifugation using SepMate tubes (85450; StemCell Technologies) according to the manufacturers protocol. […] Then, 20-24 hours post-PHA activation, 15 mL of R10/PHA medium is removed and replaced with 5 mL of R10+100u/mL Recombinant Human IL-2 (202|L010; R&D Systems). 48 hours after IL-2 stimulation, primary CD4^+ T cells were infected via spinoculation with previously described HIV ΔGPE construct.
(§3) 48 hours after spinoculation, cells were pooled and plated in flat bottom 96-well plate. […] Compounds were thawed at room temperature and diluted in R10 medium to 2× starting concentration.
(§4) All ΔGPE infected cells were collected 24 hours after treatment.
(§5) All statistical analyses were performed using GraphPad Prism software. Curves were generated using GraphPad Prism software using [Inhibitor] vs. response with variable slope (four parameters).

in vitro = conditions: human
Experimental: as §1, §2, §3, §4
(§6) All Mock cells were collected 72 hours after treatment.
as §5

primary CD4+ T cells = assay: in vitro; conditions: for Viability:Nef (therapeutic window separating Nef IC50 and TC50): ratio TC50 to Nef IC50
Experimental: as §1, §2, §3, §4, §6, §5

T2 sequence (P27449 whole entry, looked up): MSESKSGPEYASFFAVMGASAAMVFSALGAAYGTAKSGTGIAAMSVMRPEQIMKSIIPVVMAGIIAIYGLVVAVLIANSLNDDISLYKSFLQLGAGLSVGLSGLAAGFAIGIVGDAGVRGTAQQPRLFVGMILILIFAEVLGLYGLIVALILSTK

Row | Compound | IC50 (V-ATPase) [nM] | CC50 (in vitro) [nM] | Viability:Nef (therapeutic window separating Nef IC50 and TC50) (primary CD4+ T cells) [fold] | also measured
1 | CNC(=O)O[C@@H](CC(C)C)c1nc([C@H]2OC(=O)/C(C)=C/C/C(C)=C/[C@@H](O)[C@@H](C)\C=C(C)/C=C(C)\C=C\[C@@H](O)[C@H](C)[C@H](OC)/C(C)=C/C=C/[C@@H]2C)cs1 [Compound 3, Archazolid A, reference compound] |  |  |  | IC50 (HIV-Nef): 0.47 nM; IC50 (V-ATPase; Lysotracker Red, ΔGPE infected primary CD4+ T cells, 24 hours after treatment, read-out: Lysotracker (V-ATPase IC50, lysosomal neutralization)): 1.6 nM
2 | C/C=C/[C@H]1O[C@@](O)([C@@H](C)[C@H](O)[C@H](C)[C@H]2OC(=O)/C(OC)=C/C(C)=C/[C@@H](C)[C@@H](O)[C@@H](C)[C@@H](OC(C)=O)[C@H](C)C/C(C)=C/C=C/[C@@H]2OC)C[C@@H](O[C@@H]2C[C@H](OC(C)=O)[C@@H](OC(N)=O)[C@H](C)O2)[C@@H]1C [Compound 13, 3′,9-Diacetyl CMB] | 38 | 8 | 8.8 | 
3 | C/C=C/[C@H]1O[C@@](O)([C@@H](C)[C@H](O)[C@H](C)[C@H]2OC(=O)/C(OC)=C/C(C)=C/[C@@H](C)[C@@H](O)[C@@H](CC)[C@@H](O)[C@H](C)C/C(C)=C/C=C/[C@@H]2OC)C[C@@H](O[C@@H]2C[C@H](OC(C)=O)[C@@H](OC(N)=O)[C@H](C)O2)[C@@H]1C [Compound 14, 3′-Acetyl CMA] | 3.7 | 1.6 | 8.5 | 
4 | C/C=C/[C@H]1O[C@@](O)([C@@H](C)[C@H](O)[C@H](C)[C@H]2OC(=O)/C(OC)=C/C(C)=C/[C@@H](C)[C@@H](O)[C@@H](CC)[C@@H](OC(C)=O)[C@H](C)C/C(C)=C/C=C/[C@@H]2OC)C[C@@H](O[C@@H]2C[C@H](OC(C)=O)[C@@H](OC(N)=O)[C@H](C)O2)[C@@H]1C [Compound 15, 3′,9-diacetyl CMA] | 7.9 | 3.9 | 11 | 
5 | C[C@@H]1C[C@H](C)C[C@H](C)[C@@H](O)CC(=O)O[C@H]([C@@H]2CCC[C@H]2C(=O)O)C/C=C/C=C(/C#N)[C@H](O)[C@@H](C)C1 [Compound S2, Borrelidin, reference compound] | 165 |  | 2.0 | CC50 at 72 h (in vitro; mock-infected primary CD4+ T cells): 91 nM; Toxicity at 24 hours (primary CD4+ T cells; 24-hour time point): toxic at 24-hours
6 | CO/C1=C\C(C)=C\[C@@H](C)[C@@H](O)[C@@H](C)C/C(C)=C/C=C/[C@H](OC)[C@@H]([C@@H](C)[C@@H](O)[C@H](C)[C@@]2(OC)C[C@@H](O)[C@H](C)C(C(C)C)O2)OC1=O (stereo partly shown) [Compound S4, Bafilomycin A2] | 24 | 13 | 1.2 | 
7 | CO/C1=C\C(C)=C\[C@@H](C)[C@@H](O)[C@@H](C)C/C(C)=C/C=C/[C@H](OC)[C@@H]([C@@H](C)[C@@H](O)[C@H](C)[C@H]2C[C@@H](OC)[C@H](C)[C@@H](C(C)C)O2)OC1=O [Compound S6] | 52 | 28 | 1.4 | 
8 | CO/C1=C\C(C)=C\[C@@H](C)[C@@H](O)[C@@H](C)C/C(C)=C/C=C/[C@H](OC)[C@@H]([C@@H](C)[C@@H](O)[C@H](C)[C@@]2(O)C[C@@H](OC(C)=O)[C@H](C)C(C(C)C)O2)OC1=O (stereo partly shown) [Compound S9] | 23 | 10 | 2.4 | 
9 | CCCCCCCCC(=O)O[C@@H]1C[C@](O)([C@@H](C)[C@H](O)[C@H](C)[C@H]2OC(=O)/C(OC)=C/C(C)=C/[C@@H](C)[C@@H](O)[C@@H](C)C/C(C)=C/C=C/[C@@H]2OC)O[C@H](C(C)C)[C@H]1C [Compound S11] | 150 | 140 | 1.1 | 
10 | C=C/C=C/C(=O)O[C@@H]1C[C@](O)([C@@H](C)[C@H](O)[C@H](C)[C@H]2OC(=O)/C(OC)=C/C(C)=C/[C@@H](C)[C@@H](O)[C@@H](C)C/C(C)=C/C=C/[C@@H]2OC)O[C@H](C(C)C)[C@H]1C [Compound S12] | 24 | 22 | 1.4 | 
11 | COC1=CC(C)=CC(C)C(O)C(C)CC(C)=CC=CC(OC)C(C(C)C(O)C(C)C2(O)CC(OC3OC(C)C(O)C(O)C3OC)C(C)C(C(C)C)O2)OC1=O (stereo not shown) [Compound S14, Leucanicidin, reference compound] | 2.5 | 1.4 | 1.3 | 
12 | CC=CC=CC1OC(O)(C(C)C(O)C(C)C2OC(=O)C(OC)=CC(C)=CC(C)C(O)C(C)CC(C)=CC=CC2OC)CC(OC2CC(O)C(O)C(C)O2)C1C (stereo not shown) [Compound S15, PC-766B, reference compound] | 2.5 | 1.3 | 1.1 | 
13 | CO/C1=C\C(C)=C\[C@@H](C)C(=O)[C@@H](C)C/C(C)=C/C=C/[C@H](OC)[C@@H]([C@@H](C)[C@@H](O)[C@H](C)[C@@]2(O)C[C@@H](O)[C@H](C)[C@@H](C(C)C)O2)OC1=O [Compound S17] | > 1000 |  |  | Nef (Nef IC50) (HIV-Nef): abrogation of activity at all concentrations tested; also recorded: above the activity threshold; Lysotracker (V-ATPase IC50, lysosomal neutralization) (V-ATPase; Lysotracker Red, ΔGPE infected primary CD4+ T cells, 24 hours after treatment): above the activity threshold; CC50 at 72 h (in vitro): > 1000 nM
14 | CO/C1=C\C(C)=C\[C@@H](C)[C@@H](OC(C)=O)[C@@H](C)C/C(C)=C/C=C/[C@H](OC)[C@@H]([C@@H](C)[C@@H](O)[C@H](C)[C@@]2(O)C[C@@H](OC(C)=O)[C@H](C)C(C(C)C)O2)OC1=O (stereo partly shown) [Compound S19] | 530 | 440 | 1.8 | 
15 | C#CCCC(=O)O[C@@H]1C[C@H]([C@@H](C)[C@H](O)[C@H](C)[C@H]2OC(=O)/C(OC)=C/C(C)=C/[C@@H](C)[C@@H](O)[C@@H](C)C/C(C)=C/C=C/[C@@H]2OC)O[C@H](C(C)C)[C@H]1C [Compound S28] | 61 | 36 | 1.7 | 
16 | C/C=C/CC(=O)O[C@@H]1C[C@](O)([C@@H](C)[C@H](O)[C@H](C)[C@H]2OC(=O)/C(OC)=C/C(C)=C/[C@@H](C)[C@@H](O)[C@@H](C)C/C(C)=C/C=C/[C@@H]2OC)OC(C(C)C)[C@H]1C (stereo partly shown) [Compound S29] | 47 | 39 | 1.6 | 
17 | C/C=C/[C@H]1O[C@@](O)([C@@H](C)[C@H](O)[C@H](C)[C@H]2OC(=O)/C(OC)=C/C(C)=C/[C@@H](C)[C@@H](O)[C@@H](CC)[C@@H](O)[C@H](C)C/C(C)=C/C=C/[C@@H]2OC)C[C@@H](O[C@@H]2C[C@H](OC(C)=O)[C@@H](OC(C)=O)[C@H](C)O2)[C@@H]1C [Compound S48, 3′,4-diacetyl CMC] | 3.1 | 1.3 | 1.8 | 
18 | C/C=C/[C@H]1O[C@@](O)([C@@H](C)[C@H](O)[C@H](C)[C@H]2OC(=O)/C(OC)=C/C(C)=C/[C@@H](C)[C@@H](O)[C@@H](CC)[C@@H](OC(C)=O)[C@H](C)C/C(C)=C/C=C/[C@@H]2OC)C[C@@H](O[C@@H]2C[C@H](OC(C)=O)[C@@H](OC(C)=O)[C@H](C)O2)[C@@H]1C [Compound S49, 3′,4′,9-triaceyl CMC] | 11 | 4.5 | 1.8 | 
19 | C/C=C/[C@H]1O[C@@](O)([C@@H](C)[C@H](O)[C@H](C)[C@H]2OC(=O)/C(OC)=C/C(C)=C/[C@@H](C)[C@@H](O)[C@@H](CC)[C@@H](O)[C@H](C)C/C(C)=C/C=C/[C@@H]2OC)C[C@@H](OC(C)=O)[C@@H]1C [Compound S50, 23-Acetyl CMF] | 6.1 | 6.1 | 5.8 | 
20 | CO/C1=C\C(C)=C\[C@@H](C)[C@@H](O)[C@@H](C)C/C(C)=C/C=C/[C@H](OC)[C@@H]([C@@H](C)[C@@H](O)[C@H](C)[C@@]2(O)C[C@@H](OC=O)[C@H](C)[C@@H](C(C)C)O2)OC1=O [Compound S61] | 12 | 7.3 | 2.6 | 
21 | C/C=C/[C@H]1O[C@@H]([C@@H](C)[C@H](O)[C@H](C)[C@H]2OC(=O)/C(OC)=C/C(C)=C/[C@@H](C)[C@@H](O)[C@@H](CC)[C@@H](O)[C@H](C)C/C(C)=C/C=C/[C@@H]2OC)C[C@@H](O[C@@H]2C[C@H](O)[C@@H](O)[C@H](C)O2)[C@@H]1C [Compound S62, 21-Deoxy CMC] | 6 | 2 | 1.8 | 

From US20260232713A1, “PLECOMACROLIDE DERIVATIVES FOR MHC-I NEF DOWNMODULATION” (priority 2022, published 2026)
